Laboratory results as given in ChEMBL document CHEMBL1201862, “PubChem BioAssay data set” (2004).
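How tested: cells in 96-well plates exposed to compound for 48 hours at five concentrations. GI50: concentration for 50% inhibition of growth.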 Active and inactive are the calls of the source. Cut-off read from the data, not from the text of the source: active = GI50 up to about 1.1 µM and inactive = higher.

Key:
Assay in all cases: DTP human tumour cell line panel, 48 h
[1] = test system: XF498
[2] = test system: 786-0
[3] = test system: RXF 393
[4] = test system: M14
[5] = test system: OVCAR-4
[6] = test system: U-251
[7] = test system: SW-620
[8] = test system: UO-31
[9] = test system: CCRF-CEM
[10] = test system: OVCAR-5
[11] = test system: SF-268
[12] = test system: SK-MEL-2
[13] = test system: SF-539
[14] = test system: RPMI-8226
[15] = test system: UACC-62
[16] = test system: NCI-H522
[17] = test system: KM12
[18] = test system: HT-29
[19] = test system: SR
[20] = test system: SNB-78
[21] = test system: Malme-3M
[22] = test system: NCI-H23
[23] = test system: HCT-15
[24] = test system: MOLT-4
[25] = test system: RXF 631
[26] = test system: DMS-273
[27] = test system: HCT-116
[28] = test system: SN12C
[29] = test system: COLO 205
[30] = test system: K562
[31] = test system: EKVX
[32] = test system: A498
[33] = test system: SNB-19
[34] = test system: HOP-62
[35] = test system: NCI-H226
[36] = test system: ACHN
[37] = test system: LOX IMVI
[38] = test system: HL-60
[39] = test system: SF-295
[40] = test system: CAKI-1
[41] = test system: UACC-257
[42] = test system: OVCAR-3
[43] = test system: KM-20L2
[44] = test system: NCI-H460
[45] = test system: OVCAR-8
[46] = test system: A549
[47] = test system: DMS-114
[48] = test system: HCC 2998
[49] = test system: IGROV-1
[50] = test system: DLD-1
[51] = test system: SK-MEL-28
[52] = test system: M19-MEL
[53] = test system: HOP-92
[54] = test system: HOP-18
[55] = test system: LXFL 529
[56] = test system: SK-MEL-5
[57] = test system: TK-10
[58] = test system: SNB-75
[59] = test system: SK-OV-3

## O=C(O)/C=C/n1c2ccccc2c(=O)c2ccccc21
[1]
  GI50: > 100 µM (inactive)
[2]
  GI50: > 100 µM (inactive)
[3]
  GI50: > 100 µM (inactive)
[4]
  GI50: > 100 µM (inactive)
[5]
  GI50: > 100 µM (inactive)
[6]
  GI50: > 100 µM (inactive)
[7]
  GI50: > 100 µM (inactive)
[8]
  GI50: > 100 µM (inactive)
[9]
  GI50: > 100 µM (inactive)
[10]
  GI50: > 100 µM (inactive)
[11]
  GI50: > 100 µM (inactive)
[12]
  GI50: > 100 µM (inactive)
[13]
  GI50: > 100 µM (inactive)
[14]
  GI50: > 100 µM (inactive)
[15]
  GI50: > 100 µM (inactive)
[16]
  GI50: > 100 µM (inactive)
[17]
  GI50: > 100 µM (inactive)
[18]
  GI50: > 100 µM (inactive)
[19]
  GI50: > 100 µM (inactive)
[20]
  GI50: > 100 µM (inactive)
[21]
  GI50: > 100 µM (inactive)
[22]
  GI50: > 100 µM (inactive)
[23]
  GI50: > 100 µM
[24]
  GI50: > 100 µM (inactive)
[25]
  GI50: > 100 µM (inactive)
[26]
  GI50: > 100 µM (inactive)
[27]
  GI50: > 100 µM (inactive)
[28]
  GI50: > 100 µM (inactive)
[29]
  GI50: > 100 µM (inactive)
[30]
  GI50: > 100 µM (inactive)
[31]
  GI50: > 100 µM (inactive)
[32]
  GI50: > 100 µM (inactive)
[33]
  GI50: > 100 µM (inactive)
[34]
  GI50: > 100 µM (inactive)
[35]
  GI50: > 100 µM (inactive)
[36]
  GI50: > 100 µM (inactive)
[37]
  GI50: > 100 µM (inactive)
[38]
  GI50: > 100 µM (inactive)
[39]
  GI50: > 100 µM (inactive)
[40]
  GI50: > 100 µM (inactive)
[41]
  GI50: > 100 µM (inactive)
[42]
  GI50: > 100 µM (inactive)
[43]
  GI50: > 100 µM (inactive)
[44]
  GI50: > 100 µM (inactive)
[45]
  GI50: > 100 µM (inactive)
[46]
  GI50: > 100 µM (inactive)
[47]
  GI50: > 100 µM (inactive)
[48]
  GI50: > 100 µM (inactive)
[49]
  GI50: > 100 µM (inactive)
[50]
  GI50: > 100 µM (inactive)
[51]
  GI50: > 100 µM (inactive)
[52]
  GI50: > 100 µM (inactive)

## CC(N)C(=O)c1ccc(O)cc1 (stereo not drawn)
[2]
  GI50: > 100 µM (inactive)
[3]
  GI50: > 100 µM (inactive)
[4]
  GI50: > 100 µM (inactive)
[53]
  GI50: > 100 µM (inactive)
[5]
  GI50: > 100 µM (inactive)
[6]
  GI50: > 100 µM (inactive)
[54]
  GI50: > 100 µM (inactive)
[7]
  GI50: > 100 µM (inactive)
[55]
  GI50: > 100 µM (inactive)
[8]
  GI50: > 100 µM (inactive)
[9]
  GI50: > 100 µM (inactive)
[10]
  GI50: > 100 µM (inactive)
[11]
  GI50: > 100 µM (inactive)
[12]
  GI50: > 100 µM (inactive)
[13]
  GI50: > 100 µM (inactive)
[14]
  GI50: > 100 µM (inactive)
[15]
  GI50: > 100 µM (inactive)
[16]
  GI50: > 100 µM (inactive)
[17]
  GI50: > 100 µM (inactive)
[18]
  GI50: > 100 µM (inactive)
[20]
  GI50: > 100 µM (inactive)
[21]
  GI50: > 100 µM (inactive)
[22]
  GI50: > 100 µM (inactive)
[23]
  GI50: > 100 µM
[24]
  GI50: > 100 µM (inactive)
[25]
  GI50: > 100 µM (inactive)
[26]
  GI50: > 100 µM (inactive)
[27]
  GI50: > 100 µM (inactive)
[28]
  GI50: > 100 µM (inactive)
[29]
  GI50: > 100 µM (inactive)
[30]
  GI50: > 100 µM (inactive)
[31]
  GI50: > 100 µM (inactive)
[32]
  GI50: > 100 µM (inactive)
[56]
  GI50: > 100 µM (inactive)
[33]
  GI50: > 100 µM (inactive)
[57]
  GI50: > 100 µM (inactive)
[34]
  GI50: > 100 µM (inactive)
[35]
  GI50: > 100 µM (inactive)
[36]
  GI50: > 100 µM (inactive)
[37]
  GI50: > 100 µM (inactive)
[38]
  GI50: > 100 µM (inactive)
[39]
  GI50: > 100 µM (inactive)
[40]
  GI50: > 100 µM (inactive)
[41]
  GI50: > 100 µM (inactive)
[58]
  GI50: > 100 µM (inactive)
[42]
  GI50: > 100 µM (inactive)
[43]
  GI50: > 100 µM (inactive)
[44]
  GI50: > 100 µM (inactive)
[45]
  GI50: > 100 µM (inactive)
[59]
  GI50: > 100 µM (inactive)
[46]
  GI50: > 100 µM (inactive)
[47]
  GI50: > 100 µM (inactive)
[48]
  GI50: > 100 µM (inactive)
[49]
  GI50: > 100 µM (inactive)
[50]
  GI50: > 100 µM (inactive)
[51]
  GI50: > 100 µM (inactive)
